Assay results taken from US20240409519A1, “HYDROGENATED QUINOXALINES” (OTSUKA PHARMACEUTICAL CO., LTD., priority 2021, published 2024).

Key:
[1] = biological target: T1, norepinephrine (NE) uptake (Rattus norvegicus, UniProt Q63380); test: Norepinephrine (NE) uptake inhibitory activity using rat brain synaptosome; assay type: biochemical; conditions: rat hippocampus synaptosome, tritium-labeled NE 12 nM; read-out: IC50 (nM), norepinephrine (NE) uptake inhibition
T1 construct: used as crude synaptosomal fraction; from tissue; host or cells: rat hippocampus, crude synaptosomal fraction
Procedure: Male Wistar rats were decapitated, each brain was removed, and the hippocampus was cut out. […] The homogenate was centrifuged at 1000 g at 4° C. for 10 minutes, and the supernatant was further centrifuged at 20000 g at 4° C. for 20 minutes. The pellet was suspended in an incubation buffer (20 mM Hepes buffer (pH 7.4) containing 10 mM glucose, 145 mM sodium chloride, 4.5 mM potassium chloride, 1.2 mM magnesium chloride and 1.5 mM calcium chloride) and used as crude synaptosomal fraction.
Each well of a 96-well round-bottom plate was used for the uptake reaction in a total volume of 200 μL solution containing purgurin (final concentration 10 μM) and ascorbic acid (final concentration 0.2 mg/mL).
After 10 minutes, the uptake reaction was terminated by suction filtration onto a 96-well glass fiber filter plate. The filters were rinsed with cold physi-ological saline solution, dried thoroughly, and micro scintillation 0 (Perkin-Elmer) was added thereto. Then, the residual radioactivity on the filters was measured.
The uptake value when only solvent was added was set as 100%, the uptake value when unlabeled NE (final concentration 10 μM) was added as 0% (nonspecific uptake value), and the 50% inhibitory concentration was calculated from the concentration of the test compound and its inhibitory activity.

[2] = Metabolic stability test (human liver microsome, hepatic intrinsic clearance); assay type: in vitro ADME; conditions: human liver microsomes, pH 7.4; human liver microsome 0.2 mg/mL, test compound 0.001 mmol/L, 37° C., 0, 10 and 20 minutes
Procedure: A metabolic reaction was initiated by adding and mixing a test compound solution (final concentration 0.001 mmol/L) and a NADH/NADPH solution (final concentration 1 mmol/L) to a human liver microsome solution (final concentration 100 mmol/L potassium phosphate buffer solution (pH 7.4), 5 mmol/L magnesium chloride, 0.2 mg/ml, human liver microsome). A solution of the internal standard in methanol was prepared and used as a quenching solution.
Specifically, a metabolic reaction was initiated by adding and mixing 2.5 μL of a solution of a test compound in acetonitrile to 222.5 μL of a human liver microsome solution in ice water, followed by preincubation at 37° C. for 1 minute, and then adding 25 μL of a NADH/NADPH solution thereto.
(§1) The mixture was centrifuged (6130 g, 4° C., 10 minutes) and the supernatant was used as a sample for LC-MS/MS.
Peak area ratio ([peak area of test compound]/[peak area of internal standard]) was calculated for the test compound and the internal standard.
The residual ratio of the test compound was calculated from ([Ratio of peak areas at each reaction time]/[Ratio of peak areas at 0 minute reaction time]).

CYP2D6 = biological target: T2, CYP2D6 (Homo sapiens, UniProt P10635); test: CYP inhibition test (1): inhibition rate (%) at one concentration, CYP2D6; assay type: in vitro ADME; conditions: human liver microsomes, pH 7.4, probe bufuralol (0.01 mmol/L); test compound 0.01 mmol/L, human liver microsome 0.1 mg/mL, substrate bufuralol, 37° C. 10 minutes; read-out: inhibition rate (%) 2D6
T2 construct: a human liver microsome solution containing three CYP-specific substrates; from tissue; host or cells: human liver microsomes
Procedure: A metabolic reaction was initiated by adding and mixing a test compound solution (final concentration 0.01 mmol/L) and a NADH/NADPH solution (final concentration 1 mmol/L) to a human liver microsome solution containing three CYP-specific substrates (final concentration 100 mmol/L potassium phosphate buffer solution (pH 7.4), 5 mmol/L magnesium chloride, 0.1 mg/mL human liver microsome, 0.005 mmol/L diclofenac (for CYP2C9), 0.01 mmol/L bufuralol (for […]), 0.005 mmol/L midazolam (for CYP3A4)). As an internal standard solution, a solution of each of stable isotopes of the metabolites (50 ng/mL [13C6] hydroxy diclofenac, 5 ng/mL [2H9] hydroxy bufuralol, and 5 ng/mL [13C6] hydroxy midazolam (all stable isotopes)) in methanol was prepared and used as a quenching solution.
Specifically, a metabolic reaction was initiated by adding and mixing 2 μL of a solution of a test compound in acetonitrile (or acetonitrile as a control) to 178 μL of a human liver microsome solution in ice water, followed by preincubation at 37° C. for 1 minute, and then adding 20 μL of a NADH/NADPH solution thereto. After incubation at 37° C. for 10 minutes, 50 μL of the reaction mixture was taken, and then it was added and mixed to 500 μL of a quenching solution to quech the reaction. The mixture was centrifuged (6130 g, 4° C., 10 minutes) and the supernatant was used as a sample for LC-MS/MS.
Peak area ratio ([peak area of metabolite]/[peak area of corresponding stable isotope]) was calculated for a metabolite and a stable isotope of the metabolite as measurement object. By comparing the peak area ratio of each test compound solution with that of the control, the inhibition rate (%) of each CYP species for each test compound was calculated from (1-[peak area ratio of each test compound solution]/[peak area ratio of control])×100.

[3] = Protein binding rate test (human serum, equilibrium dialysis); assay type: in vitro ADME; conditions: test compound 0.001 mmol/L, equilibrium dialysis 37° C. 6 hours
Procedure: A serum sample was prepared by adding a test compound solution to a human serum (final concentration of the test compound: 0.001 mmol/L). The serum sample and Dulbecco's Phosphate-Buffered Saline (D-PBS(−)) were added to the wells separated by a dialysis membrane to start the reaction. A solution of the internal standard in methanol was prepared and used as a quenching solution.
Specifically, the dialysis membrane (cut-off molecular weight 12000-14000) was pre-conditioned by immersing it in distilled water, followed by 20% ethanol. Then, the membrane was washed with D-PBS(−) and set in an equilibrium dialysis kit. Then, 150 μL of D-PBS(−) was added to one part of each well divided by the dialysis membrane, and 150 μL of serum sample was added to the other part. After sealing all wells and incubation at 37° C. for 6 hours, 30 μL from the serum side and 90 μL from the PBS side of each well were collected and mixed with 90 μL of D-PBS(−) or 30 μL of blank serum and 480 μL of a quenching solution to quench the reaction.
as §1
Peak area ratio ([peak area of test compound]/[peak area of internal standard]) was calculated for the test compound and the internal standard. By comparing the peak area ratio of the PBS side for each test compound with that of the serum side, the protein binding rate (%) of each test compound was calculated from (1-[peak area ratio of PBS side]/[peak area ratio of serum side])×100.

T2 sequence (P10635 whole entry): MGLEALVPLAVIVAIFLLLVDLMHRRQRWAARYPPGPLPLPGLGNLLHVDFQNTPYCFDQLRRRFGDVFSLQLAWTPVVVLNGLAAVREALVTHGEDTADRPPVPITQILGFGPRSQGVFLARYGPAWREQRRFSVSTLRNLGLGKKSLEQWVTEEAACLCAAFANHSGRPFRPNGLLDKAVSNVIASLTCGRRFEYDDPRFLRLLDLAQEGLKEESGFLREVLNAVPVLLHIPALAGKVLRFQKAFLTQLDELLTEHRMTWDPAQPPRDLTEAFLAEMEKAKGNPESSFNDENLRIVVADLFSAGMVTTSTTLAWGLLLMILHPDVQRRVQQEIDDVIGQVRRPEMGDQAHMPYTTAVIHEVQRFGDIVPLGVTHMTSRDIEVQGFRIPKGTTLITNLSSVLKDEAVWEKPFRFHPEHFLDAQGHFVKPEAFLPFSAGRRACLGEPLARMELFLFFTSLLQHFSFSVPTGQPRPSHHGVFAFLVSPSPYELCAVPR
T1 sequence (Q63380 1-617): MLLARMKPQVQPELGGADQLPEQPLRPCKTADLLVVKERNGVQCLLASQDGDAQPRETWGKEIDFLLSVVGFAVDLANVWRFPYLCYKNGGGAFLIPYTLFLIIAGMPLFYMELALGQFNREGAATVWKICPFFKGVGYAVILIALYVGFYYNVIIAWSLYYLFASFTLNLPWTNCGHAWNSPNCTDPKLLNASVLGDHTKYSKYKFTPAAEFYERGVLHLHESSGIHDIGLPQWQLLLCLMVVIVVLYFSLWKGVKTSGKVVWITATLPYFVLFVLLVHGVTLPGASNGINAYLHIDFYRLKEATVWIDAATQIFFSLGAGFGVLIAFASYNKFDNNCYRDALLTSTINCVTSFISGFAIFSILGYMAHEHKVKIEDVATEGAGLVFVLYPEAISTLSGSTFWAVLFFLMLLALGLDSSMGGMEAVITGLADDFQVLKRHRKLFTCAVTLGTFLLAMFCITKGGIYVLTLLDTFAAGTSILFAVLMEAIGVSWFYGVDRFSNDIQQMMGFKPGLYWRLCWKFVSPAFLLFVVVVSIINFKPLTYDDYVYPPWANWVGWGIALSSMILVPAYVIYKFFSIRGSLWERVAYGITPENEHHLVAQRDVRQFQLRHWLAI

Structure (SMILES) | IC50 [1] | microsomal CLint at 0.001 mmol/L [2] | inhibition at 10 min, 0.01 mmol/L (CYP2D6) | fraction unbound at 6 h, 0.001 mmol/L [3]
CC1(C)CN(c2ccc(OCCO)c3occc23)[C@H]2CCCC[C@H]2N1 [Example 51] | 4.3 nM | < 50 µL/min/mg | 17% | 0.553
CC1(C)CN(c2ccc(OCCO)c3occc23)[C@@H]2CCCC[C@@H]2N1 [Example 50] | 5.8 nM | < 50 µL/min/mg | 41.8% | 0.551
Cc1cc(N2CC3(CCC3)N[C@H]3CCCC[C@@H]32)cc(F)c1OCCO [Example 14] | 8.5 nM | < 50 µL/min/mg | 20.5% | 0.615
COc1cc(N2CC3(CCC3)N[C@H]3CCCC[C@@H]32)ccc1OCCO [Example 11] | 91 nM | < 50 µL/min/mg | 14.2% | 0.767
OCCOc1ccc(N2CC3(CCC3)N[C@H]3CCCC[C@@H]32)cc1 [Example 8] | 37.2 nM | < 50 µL/min/mg | 20.1% | 0.686
CC1(C)CN(c2ccc(OCCO)c(Cl)c2)[C@H]2CCCC[C@H]2N1 [Example 44, 2-(2-chloro-4-((4aR,8aS)-3,3-dimethyloctahydroquinoxalin-1(2H)-yl)phenoxy)ethan-1-ol 1/2fumarate] | 5.2 nM | < 50 µL/min/mg | 10.2% | 0.566

Further lines, results first:

IC50 [1] | microsomal CLint at 0.001 mmol/L [2] | inhibition at 10 min, 0.01 mmol/L (CYP2D6) | fraction unbound at 6 h, 0.001 mmol/L [3] | Structure (SMILES)
5.4 nM | < 50 µL/min/mg | 21.6% | 0.499 | CC1(C)CN(c2ccc(OCCO)cc2Cl)[C@H]2CCCC[C@H]2N1 [Example 64, 2-(3-chloro-4-((4aR,8aS)-3,3-dimethyloctahydroquinoxalin-1(2H)-yl)phenoxy)ethan-1-ol 1/2fumarate]
6.4 nM | < 50 µL/min/mg | 16.1% | 0.358 | Cc1cc(N2CC(C)(C)N[C@@H]3CCCC[C@@H]32)cc(F)c1OC(F)(F)CO [Example 58]
12.4 nM | 57 µL/min/mg | 20.9% | 0.21 | CC1(C)CN(c2ccc(OC(F)(F)CO)c(Cl)c2F)[C@@H]2CCCC[C@H]2N1 [Example 80]
1 nM | < 50 µL/min/mg | 28.4% | 0.195 | Cc1c(OC(F)(F)CO)ccc(N2CC(C)(C)N[C@@H]3CCCC[C@@H]32)c1F [Example 70]
8.8 nM | < 50 µL/min/mg | 21.9% | 0.308 | CC1(C)CN(c2cc(Cl)c(OC(F)(F)CO)cc2F)[C@@H]2CCCC[C@H]2N1 [Example 76]
6.1 nM | < 50 µL/min/mg | 16.1% | 0.337 | CC1(C)CN(c2ccc(OC(F)(F)CO)cc2F)[C@H]2CCCC[C@H]2N1 [Example 61, 2-(4-((4aR,8aS)-3,3-dimethyloctahydroquinoxalin-1(2H)-yl)-3-fluorophenoxy)-2,2-difluoroethan-1-ol 1/2fumarate]
3.4 nM | < 50 µL/min/mg | 45.6% | 0.211 | Cc1c(OC(F)(F)CO)ccc(N2CC(C)(C)N[C@H]3CCCC[C@H]32)c1F [Example 69, 2-(4-((4aS,8aR)-3,3-dimethyloctahydroquinoxalin-1(2H)-yl)-3-fluoro-2-methylphenoxy)-2,2-difluoroethan-1-ol 1/2fumarate]
9.7 nM | < 50 µL/min/mg | 19.3% | 0.277 | CC1(C)CN(c2cc(Cl)c(OC(F)(F)CO)cc2F)[C@H]2CCCC[C@@H]2N1 [Example 75]
